Data set [1] has as its system endosomes of Jurkat lymphocytes. Put plainly: Endosome disruption in Jurkat lymphocytes: release of carboxyfluorescein from disulfide probe Compound 2, flow cytometry. The settings on record: for Efficacy (% of max. 1): % change in cellular fluorescence relative to maximal response of Compound 1 (100%); for Efficacy (% of max. 1) / Efficacy (% of 1): Jurkat; for Efficacy (% of 1): % of the effect of compound 1, calculated span of dose-response curve, ± standard deviation. The procedure:
(§1) The effects of the compounds of the invention on human Juikat leukemia cells were evaluated using flow cytometry-based assays of potency, efficacy, and toxicity. […] Analysis of flow cytometry data by non-linear regression was used to determine IC50 values for potency with the efficacy expressed as a percentage. […] Dose-dependent effects on cellular viability after 48 h at 37° C. in culture were also measured by flow cytometry.
(§2) The # represents the compound number in accordance with Tables A, B, and C. Concentrations of compound stock solutions were determined by absorbance measurements at 280 nm. Efficacy was determined as % change in cellular fluorescence relative to the maximal response of Compound 1, defined as 100%. Potencies and efficacies in Jurkat lymphocytes were measured by flow cytometry after treatment of cells with the compounds listed and the fluorescent probe Compound 2 (2.5 μM) for 14 hours. Toxicity to this cell line was determined by flow cytometry analysis of light scattering and counterstaining with PI after treatment for 48 h at 37° C. in culture. […] N.D., not determined.
Cells were treated with fluorescent molecular probe Compound 2 (2.5 μM) and endosome disruptors for 14 hours at 37° C. Enhanced cellular fluorescence resulting from release of the pH-sensitive fluorophore Compound 3 into the cytoplasm was quantified by flow cytometry.
Natural amino acids are represented by single letter codes. Codes for non-standard elements are as follows: Ch1: (3β-Cholest-5-en-3-yl-ammonio)pentanoyl; Ch2: (Cholester-3-yl)oxy-βAla-βAla; X: ε-Ahx; U: Aib; PB: Pacific Blue fluorophore. O: 3-(2-(2-(2-aminoethoxy)ethoxy)ethoxy)propanyl.

The subject of a further data set is Jurkat lymphocytes. Conditions: 48 h. As to the method:
as §1, §2

The nature of data set [2]: Thermodynamic solubility in PBS (pH 7.4). The settings on record: phosphate buffered saline, pH 7.4, Table 3; PBS pH 7.4, 24 h at 22° C.; read-out: Solubility. It counts as physicochemical. The source says:
Values in parentheses represent 95% confidence intervals. N.D., not determined.
Measurements represent duplicate or more replicates, with active peptides subjected to multiple replicates. ND: not determined. The peptide was non-toxic and soluble in cell culture medium at this concentration.

Setting [3] is: read-out: Potency, Table 2, EC50 ± standard deviation, Jurkat lymphocytes, disulfide-linked fluorescent probe (2.5 μM), 14 h.
Where [4] appears, read: read-out: Potency (EC50), Table 1, Jurkat lymphocytes, probe Compound 2 (2.5 μM), 14 hours, 95% confidence interval in neighbouring cell.

Usually IC50 stands for the concentration needed to halve the response being measured. Low readings indicate greater potency in that assay, high ones weaker potency in that assay.

In brackets after ≈: the same amount, converted by molar mass. Read-outs that look alike come from different tables or passages of the source. Non-standard residues stand in square brackets, D forms with d. Residues, ends and D or L forms follow the SMILES beside them. *: point of attachment. Pentanoyl(5-NH-cholesteryl) = CC(C)CCC[C@@H](C)[C@H]1CC[C@H]2[C@@H]3CC=C4C[C@@H](NCCCCC(=O)*)CC[C@]4(C)[C@H]3CC[C@]12C; Aib = CC(C)(N)C(=O)O; Ahx = NCCCCCC(=O)O; βAla = NCCC(=O)O

Molecule `CC(C)CCC[C@@H](C)[C@H]1CC[C@H]2[C@@H]3CC=C4C[C@@H](NCCCCC(=O)NCCC(=O)N[C@@H](CCC(=O)O)C(=O)N[C@@H](CCC(=O)O)C(=O)NCCCCCC(=O)NCCCCCC(=O)NC(C)(C)C(=O)NC(C)(C)C(=O)NC(C)(C)C(=O)NC(C)(C)C(=O)N[C@@H](Cc5c[nH]c6ccccc56)C(=O)N[C@@H](Cc5c[nH]c6ccccc56)C(=O)N[C@@H](C)C(=O)N[C@@H](Cc5ccc(O)cc5)C(=O)N[C@@H](Cc5c[nH]c6ccccc56)C(=O)N5CCC[C@H]5C(=O)N5CCC[C@H]5C(=O)N[C@H](C(=O)N[C@@H](C)C(N)=O)C(C)C)CC[C@]4(C)[C@H]3CC[C@]12C` [Compound 21, R = BEEXXUUUUWWAYWPPVA-CONH2] ({Pentanoyl(5-NH-cholesteryl)-βAla}-EE[Ahx][Ahx][Aib][Aib][Aib][Aib]WWAYWPPVA-NH2) returned an EC50 in data set [1] (14 h) of 0.1 µM. Also, inhibition in the data set with Jurkat lymphocytes was half-maximal at 9 µM (IC50).
In data set [1] (14 h), `CC(C)CCC[C@@H](C)[C@H]1CC[C@H]2[C@@H]3CC=C4C[C@@H](NCCCCC(=O)NCCC(=O)N[C@@H](CCC(=O)O)C(=O)N[C@@H](CCC(=O)O)C(=O)NCCCCCC(=O)NC(C)(C)C(=O)NC(C)(C)C(=O)NC(C)(C)C(=O)N[C@@H](Cc5c[nH]c6ccccc56)C(=O)N[C@@H](Cc5c[nH]c6ccccc56)C(=O)N[C@@H](C)C(=O)N[C@@H](Cc5c[nH]c6ccccc56)C(=O)N[C@@H](Cc5c[nH]c6ccccc56)C(=O)N5CCC[C@H]5C(=O)N5CCC[C@H]5C(=O)N[C@H](C(=O)N[C@@H](C)C(N)=O)C(C)C)CC[C@]4(C)[C@H]3CC[C@]12C` [Compound 19, R = BEEXUUUWWAWWPPVA-CONH2] ({Pentanoyl(5-NH-cholesteryl)-βAla}-EE[Ahx][Aib][Aib][Aib]WWAWWPPVA-NH2) gave an EC50 of 1 µM. In the data set with Jurkat lymphocytes, it took 20 µM to reach half-maximal inhibition (IC50).
Turning to `CC(C)CCC[C@@H](C)[C@H]1CC[C@H]2[C@@H]3CC=C4C[C@@H](NCCCCC(=O)NCCC(=O)N[C@@H](CCC(=O)O)C(=O)N[C@@H](CCC(=O)O)C(=O)NCCCCCC(=O)NC(C)(C)C(=O)NC(C)(C)C(=O)N[C@@H](Cc5c[nH]c6ccccc56)C(=O)N[C@@H](Cc5c[nH]c6ccccc56)C(=O)N[C@@H](C)C(=O)N[C@@H](Cc5ccc(O)cc5)C(=O)N[C@@H](Cc5c[nH]c6ccccc56)C(=O)N5CCC[C@H]5C(=O)N5CCC[C@H]5C(=O)N[C@H](C(=O)N[C@@H](C)C(N)=O)C(C)C)CC[C@]4(C)[C@H]3CC[C@]12C` [Compound 10, R = BEEXUUWWAYWPPVA-CONH2] ({Pentanoyl(5-NH-cholesteryl)-βAla}-EE[Ahx][Aib][Aib]WWAYWPPVA-NH2), the EC50 in data set [1] (14 h) is 0.9 µM. This molecule also displayed a half-inhibitory concentration (IC50) with Jurkat lymphocytes of 15 µM.
The molecule `CC(C)CCC[C@@H](C)[C@H]1CC[C@H]2[C@@H]3CC=C4C[C@@H](NCCCCC(=O)NCCC(=O)N[C@@H](CCC(=O)O)C(=O)N[C@@H](CCC(=O)O)C(=O)NCCCCCC(=O)NCCCCCC(=O)NC(C)(C)C(=O)NC(C)(C)C(=O)NC(C)(C)C(=O)NC(C)(C)C(=O)N[C@@H](Cc5ccc(O)cc5)C(=O)N[C@@H](Cc5ccc(O)cc5)C(=O)N[C@@H](C)C(=O)N[C@@H](Cc5ccc(O)cc5)C(=O)N[C@@H](Cc5ccc(O)cc5)C(=O)N5CCC[C@H]5C(=O)N5CCC[C@H]5C(=O)N[C@H](C(=O)N[C@@H](C)C(N)=O)C(C)C)CC[C@]4(C)[C@H]3CC[C@]12C` [Compound 23, R = BEEXXUUUUYYAYYPPVA-CONH2] ({Pentanoyl(5-NH-cholesteryl)-βAla}-EE[Ahx][Ahx][Aib][Aib][Aib][Aib]YYAYYPPVA-NH2) showed an EC50 in data set [1] (14 h) of 0.1 µM. Besides, the concentration for half-maximal inhibition (IC50) in the data set on Jurkat lymphocytes was 4 µM.
As to `CC(C)CCC[C@@H](C)[C@H]1CC[C@H]2[C@@H]3CC=C4C[C@@H](NCCCCC(=O)NCCC(=O)N[C@@H](CCC(=O)O)C(=O)N[C@@H](CCC(=O)O)C(=O)NCCCCCC(=O)NC(C)(C)C(=O)NC(C)(C)C(=O)NC(C)(C)C(=O)NC(C)(C)C(=O)N[C@@H](Cc5c[nH]c6ccccc56)C(=O)N[C@@H](Cc5c[nH]c6ccccc56)C(=O)N[C@@H](C)C(=O)N[C@@H](Cc5ccc(O)cc5)C(=O)N[C@@H](Cc5c[nH]c6ccccc56)C(=O)N5CCC[C@H]5C(=O)N5CCC[C@H]5C(=O)N[C@H](C(=O)N[C@@H](C)C(N)=O)C(C)C)CC[C@]4(C)[C@H]3CC[C@]12C` [Compound 20, R = BEEXUUUUWWAYWPPVA-CONH2] ({Pentanoyl(5-NH-cholesteryl)-βAla}-EE[Ahx][Aib][Aib][Aib][Aib]WWAYWPPVA-NH2), in data set [1] (14 h), the EC50 worked out at 0.1 µM. 15 µM corresponded to half-maximal inhibition with Jurkat lymphocytes (IC50).
Taken in the same sequence, the figures for `CC(C)CCC[C@@H](C)[C@H]1CC[C@H]2[C@@H]3CC=C4C[C@@H](NCCCCC(=O)NCCC(=O)N[C@@H](CCC(=O)O)C(=O)N[C@@H](CCC(=O)O)C(=O)NCCCCCC(=O)NCCCCCC(=O)NC(C)(C)C(=O)NC(C)(C)C(=O)NC(C)(C)C(=O)NC(C)(C)C(=O)N[C@@H](Cc5ccc(O)cc5)C(=O)N[C@@H](Cc5ccc(O)cc5)C(=O)N[C@@H](Cc5ccc(O)cc5)C(=O)N[C@@H](Cc5ccc(O)cc5)C(=O)N[C@@H](Cc5ccc(O)cc5)C(=O)N5CCC[C@H]5C(=O)N5CCC[C@H]5C(=O)N[C@H](C(=O)N[C@@H](C)C(N)=O)C(C)C)CC[C@]4(C)[C@H]3CC[C@]12C` [Compound 24, R = BEEXXUUUUYYYYYPPVA-CONH2] ({Pentanoyl(5-NH-cholesteryl)-βAla}-EE[Ahx][Ahx][Aib][Aib][Aib][Aib]YYYYYPPVA-NH2) were 0.09 µM and 5 µM.
As for `CC(C)[C@H](NC(=O)[C@@H](NC(=O)[C@@H]1CCCN1C(=O)[C@@H]1CCCN1C(=O)[C@H](Cc1c[nH]c2ccccc12)NC(=O)[C@H](Cc1ccc(O)cc1)NC(=O)[C@H](C)NC(=O)[C@H](C)NC(=O)[C@H](Cc1c[nH]c2ccccc12)NC(=O)C(C)(C)NC(=O)C(C)(C)NC(=O)C(C)(C)NC(=O)C(C)(C)N)C(C)C)C(N)=O` [Compound 46] (H-[Aib][Aib][Aib][Aib]WAAYWPPVV-NH2), the “Efficacy (% of max. 1)” value in data set [1] (Table 1, 14 hours) is given as <<50%. Also, in data set [1] (Table 2, 14 h), the “Efficacy (% of 1)” value was below 10%. Also, the solubility thermodynamic at 24 h in data set [2] amounted to 86 ± 5 µM (≈ 123 µg/mL).
On to Ac-AAAWWAYWPPVA-NH2 [Compound 40], for which the “Efficacy (% of max. 1)” value in data set [1] (Table 1, 14 hours) is <<50%. Also, in data set [1] (setting [3]), the EC50 was above 15 µM. Besides, the solubility thermodynamic at 24 h in data set [2] was 41 ± 2 µM.
For `CC(C)[C@H](NC(=O)[C@@H](NC(=O)[C@@H]1CCCN1C(=O)[C@H](C)NC(=O)[C@H](Cc1c[nH]c2ccccc12)NC(=O)[C@H](Cc1ccc(O)cc1)NC(=O)[C@H](C)NC(=O)[C@H](Cc1c[nH]c2ccccc12)NC(=O)[C@H](Cc1c[nH]c2ccccc12)NC(=O)C(C)(C)NC(=O)C(C)(C)NC(=O)C(C)(C)NC(=O)C(C)(C)N)C(C)C)C(N)=O` [Compound 49] (H-[Aib][Aib][Aib][Aib]WWAYWAPVV-NH2), the “Efficacy (% of max. 1)” value in data set [1] (Table 1, 14 hours) stood at 45%. Also, the “Efficacy (% of 1)” value in data set [1] (Table 2, 14 h) was 35 ± 2%. In addition, in data set [1] (setting [4]), the EC50 worked out at 12 µM. The solubility thermodynamic at 24 h in data set [2] was determined as 21 ± 2 µM (≈ 31.9 µg/mL).
Take `CC(C)[C@H](NC(=O)[C@@H](NC(=O)[C@H](C)NC(=O)[C@@H]1CCCN1C(=O)[C@H](Cc1c[nH]c2ccccc12)NC(=O)[C@H](Cc1ccc(O)cc1)NC(=O)[C@H](C)NC(=O)[C@H](Cc1c[nH]c2ccccc12)NC(=O)[C@H](Cc1c[nH]c2ccccc12)NC(=O)C(C)(C)NC(=O)C(C)(C)NC(=O)C(C)(C)NC(=O)C(C)(C)N)C(C)C)C(N)=O` [Compound 50] (H-[Aib][Aib][Aib][Aib]WWAYWPAVV-NH2): in data set [1] (Jurkat endosome disruption assay), the “Endosome disruption activity (in words)” value is reported as “substantial activity”. Further, the “Efficacy (% of max. 1)” value in data set [1] (Table 1, 14 hours) stood at 71%. In data set [1] (Table 2, 14 h), the “Efficacy (% of 1)” value is listed as 54 ± 3%. Also, the EC50 in data set [1] (setting [3]) worked out at 9 ± 3 µM. Further, the solubility thermodynamic at 24 h in data set [2] was found to be 22 ± 2 µM (≈ 33.4 µg/mL).
On to `CC(C)[C@H](NC(=O)[C@@H]1CCCN1C(=O)[C@@H]1CCCN1C(=O)[C@H](Cc1c[nH]c2ccccc12)NC(=O)[C@H](Cc1ccc(O)cc1)NC(=O)[C@H](C)NC(=O)[C@H](Cc1c[nH]c2ccccc12)NC(=O)[C@H](Cc1c[nH]c2ccccc12)NC(=O)C(C)(C)NC(=O)C(C)(C)NC(=O)C(C)(C)NC(=O)C(C)(C)N)C(=O)N[C@@H](C)C(N)=O` [Compound 43] (H-[Aib][Aib][Aib][Aib]WWAYWPPVA-NH2), for which the “Efficacy (% of max. 1)” value in data set [1] (Table 1, 14 hours) is listed as 64%. Also, the “Efficacy (% of 1)” value in data set [1] (Table 2, 14 h) was 57 ± 7%. The figures for the EC50 in data set [1] (setting [4]) and in data set [1] (setting [3]) were 10 µM and 9 ± 3 µM, respectively. Further, the solubility thermodynamic at 24 h in data set [2] came out at 40 ± 2 µM (≈ 60.6 µg/mL).
